Common to all, as to type: cell-based, Homo sapiens
Experiment [1] concerns NuMA in RPE1 p53-/- cells. Put plainly: Immunofluorescence, NuMA spindle pole signal intensity, RPE1 p53-/-. Conditions: Aurora-A inhibitor 30 min (500 nM), compared with RΔ11. The protocol:
(§1) As noted in the figures, the following drugs were incubated with cells for 30 min at 37 °C: Aurora-B-i ZM447439 2 µM [10 mM], PLK1-I BI2536 1 µM [10 mM] and Aurora-A-i MLN8237 [5 mM] was used at 250 and 500 nM in U251 and RPE1 cells, respectively. Drugs were resuspended in DMSO to the stock concentrations indicated in square brackets. BI2536 (HY-50698), MLN8237 (HY-10971) and ZM447439 (HY-10128) were all purchased from MedChemExpress. For western blotting, a 20-min pre-treatment with proteasome inhibitor (20 µM MG-132, MerckMillipore, 47490 [20 mM]) was required prior to the addition of DMSO control or kinase inhibitors. This prevented mitotic exit as a consequence of checkpoint override following Aurora-A and Aurora-B inhibitor addition.
(§2) For siRNA depletion, 1 × 10^5 cells were seeded in six-well plates and transfected as described above for 48 h prior to fixation. For all other experiments, 2.5 × 10^5 cells were seeded in six-well plates and grown for 24 h before fixation. All cells were grown on 12 mm diameter glass coverslips (VWR, 631–1577). […]
(§3) For CEP192, LATS2-pS83, PCNT, PLK1 and γ-tubulin intensity, a 20-pixel diameter circle was centred over each centrosome and the intensity measured. […]

A further experiment has as its system Eg5 in RPE1 p53-/- cells. Put plainly: Immunofluorescence, Eg5 spindle signal intensity, RPE1 p53-/-. The following applies: Aurora-A inhibitor 30 min (500 nM). Here is the method: as §1, §2, §3
Experiment [2] has as its system PLK1-pT210 in RPE1 p53-/- cells. Put plainly: Western blot densitometry, PLK1-pT210, RPE1 p53-/-. The following applies: mitotic RPE1 p53-/- lysates, inhibitor 30 min. The protocol:
For measuring monopolar spindle diameter and counting centriolar foci by immunofluorescence, cells were treated with 10 µM STLC for 1 h and 4 h prior to fixation, respectively.
Drugs were resuspended in DMSO to the stock concentrations indicated in square brackets.
Cells were lysed on ice for 30 min in lysis buffer (50 mM tris pH 8.0, 300 mM NaCl, 0.2%(v/v) NP-40, 10%(v/v) glycerol, protease inhibitor cocktail C, phosphatase inhibitor cocktail 3 (Sigma, 1:200 dilution), 100 nM okadaic acid (Enzo, ALX-350-003-C100)). Lysates were then centrifuged at 14,000 × g, 15 min, 4 °C, the supernatants were transferred to a fresh tube, and the pellet was discarded. Protein concentrations were measured by Bradford assay using Protein Assay Dye Reagent Concentrate (Bio-Rad Laboratories, 5000006). NuPage LDS sample buffer, supplemented with NuPAGE sample reducing agent (Invitrogen) were added prior to boiling for 10 min at 90 °C. […] Nitrocellulose was then blocked in 5% milk (wt/v) in TBS, 0.1% Tween (v/v) (TBST) for 1 h. Primary and secondary antibodies were diluted in 5% milk, TBST and incubated overnight at 4 °C or for 1 h at room temperature, respectively. […]
Densitometric quantification of western blots was also performed in ImageJ. Intensity was measured in a rectangular region of interest (ROI) around each band. […] An adjacent region was also measured to account for background intensity.
For orientation: In western blotting, separated proteins are transferred to a membrane and probed.

Take `COc1cc(Nc2ncc3c(n2)-c2ccc(Cl)cc2C(c2c(F)cccc2OC)=NC3)ccc1C(=O)O` [Alisertib]: the “NuMA levels at spindle poles” value in experiment [1] is “equally high in R∆11 and Aurora-A inhibitor-treated cells”. Further, the “spindle levels of Eg5” value in the experiment with Eg5 in RPE1 p53-/- cells is listed as “decrease in spindle levels of Eg5”. In experiment [2], the “T-loop phosphorylation of PLK1 (pT210)” value is listed as “decreased”.
